Earlier results as cited in US10332616B2, “Movable type method applied to protein-ligand binding” (University of Florida Research Foundation, Inc., priority 2013, dated 2019).
Where two headings read alike, the source gives them in different places.

[1] = experimental solvation free energy, test set with 372 neutral compounds
[2] = experimental solvation free energy, neutral compounds test set
[3] = aqueous solvation free energy, charged compounds (ions)

SMILES	Exp. ΔGsolv [1] [kcal/mol]	Exp. ΔGsolv [2] [kcal/mol]	other results
CC(C)[N+](=O)[O-] [Compound 0132nit]	-3.14		
ClCCl [Compound 0161dic]	-1.36		
CCN(CC)c1c([N+](=O)[O-])cc(C(F)(F)F)c(N)c1[N+](=O)[O-] [test1027]		-5.7	
Nc1cnn(-c2ccccc2)c(=O)c1Cl [test1049]		-16.4	
Cc1ccccc1O [Compound 0055ocr]		-5.87	
CCCCCCC [Compound 0007nhe]	2.62		
CCCN(CCC)c1c([N+](=O)[O-])cc(C(F)(F)F)cc1[N+](=O)[O-] [test1056]	-3.3		
COc1cccc(C(=O)O)c1 [test3015]		-8.93	
CCC(=O)O [Compound 0087pro]		-6.47	
CC(=O)O [i059, aceticacid, reference compound]			Exp. ΔGsolv [3]: -77.60 kcal/mol
CBr [Compound 0177bro]	-0.82		
Cn1c(=O)c2c(ncn2C)n(C)c1=O [test2004]		-12.64	
CCO [Compound 0045eth]		-5.01	
FC(F)(Cl)Cl [Compound 0421dfl]	1.69		
CCCN [i004, n-propylamine, reference compound]			Exp. ΔGsolv [3]: -71.50 kcal/mol
N#Cc1ccccc1 [Compound 0129ben]	-4.1		
Nc1cccc(N)c1 [i023, 3-aminoaniline, reference compound]			Exp. ΔGsolv [3]: -65.80 kcal/mol
C#CC [Compound 0031pro]	-0.31		
OC(C(F)(F)F)C(F)(F)F [Compound 0212hex]		-3.77	
Cc1[nH]c(=O)n(C(C)(C)C)c(=O)c1Cl [test1052]		-11.1	
C1CNCCN1 [Compound 0109pip]		-7.4	

SMILES	Exp. ΔGsolv [1] [kcal/mol]	Exp. ΔGsolv [2] [kcal/mol]	other results
Brc1ccccc1 [Compound 0186bro]	-1.46		
CC(O)C(F)(F)F (stereo not shown) [Compound 0211tri]		-4.16	
CC(C)CBr [Compound 0418bri]	-0.03		
Cc1ccc(C)cc1 [Compound 0040pxy]	-0.81		
Clc1ccccc1-c1ccccc1Cl [Compound 0414dcl]	-2.73		
C#CC=C [Compound 0148but]	0.04		
CCOC=O [Compound 0092ethb]		-2.65	
COO [methylperoxide, reference compound]			ΔGsol experimental value (neutral molecule): -5.28 kcal/mol
c1ccsc1 [Compound 0245thi]		-1.42	
CCC#N [Compound 0127pro]	-3.85		
CCCOC [Compound 0064met]		-1.66	
CCOC(=O)CC(SP(=S)(OC)OC)C(=O)OCC (stereo not shown) [test1036]		-8.2	
CN [Compound 0228met]		-4.56	
C=CCC [Compound 0025buta]	1.38		
COC=O [Compound 0091met]		-2.78	
CC(C)O [Compound 0048pro]		-1.76	
FC(F)(F)C(Cl)Br (stereo not shown) [Compound 0201bro]	-0.13		
ClCCOCCCl [test0007]		-4.23	
CCCCCCO [Compound 0054hex]		-4.36	
Cc1ccc(N)cc1 [n011]		-5.55	
CCCSP(=O)(OCC)Oc1ccc(Br)cc1Cl (stereo not shown) [Compound 0442pho]		-4.09	

SMILES	Exp. ΔGsolv [1] [kcal/mol]	Exp. ΔGsolv [2] [kcal/mol]	other results
CCOC(=O)c1ccc(O)cc1 [test2011]		-9.2	
CCC[N+](=O)[O-] [Compound 0131nit]	-3.34		
CCOCCOCC [test0014]		-3.54	
COP(=O)(OC)OC=C(Cl)Cl [Compound 0433pho]	-6.61		
CCC [Compound 0003pro]	1.96		
CNC(=O)Oc1cccc2ccccc12 [test1015]		-9.5	
CCCOC(C)=O [Compound 0097pro]		-2.86	
C [Compound 0001met]	2		
N#Cc1c(Cl)cccc1Cl [Compound 0426dcl]		-5.22	
Cc1ccccc1C [Compound 0038oxy]	-0.9		
Cc1ccccc1Cl [Compound 0413clt]	-1.15		
CNC(=O)Oc1cccc2c1OC(C)(C)C2 [test1016]		-9.6	
C1COCCO1 [Compound 0062dio]		-5.05	
ClC1=C(Cl)C2(Cl)C3C(Cl)C(Cl)CC3C1(Cl)C2(Cl)Cl (stereo not shown) [test1018]	-3.4		
ClC(Cl)(Cl)C(Cl)(Cl)Cl [Compound 0408hex]	-1.4		
CCC(C)=O [Compound 0076but]	-3.64		
CN [i003, methylamine, reference compound]			Exp. ΔGsolv [3]: -76.40 kcal/mol
C=CCO [Compound 0145pro]		-5.08	
CCOP(=S)(OCC)Oc1nc(Cl)c(Cl)cc1Cl [test1022]	-5		
CCCO [Compound 0047pro]		-4.83	
Oc1ccccc1 [Compound 0053phe]		-6.62	

SMILES	Exp. ΔGsolv [1] [kcal/mol]	Exp. ΔGsolv [2] [kcal/mol]	other results
CCOP(=O)(OCC)O/C(=C\Cl)c1ccc(Cl)cc1Cl [test1019]		-7.1	
CCCN(CCC)c1c([N+](=O)[O-])cc(S(C)(=O)=O)cc1[N+](=O)[O-] [test1040]		-8	
COP(=S)(OC)Oc1cc(Cl)c(Br)cc1Cl [Compound 0445pho]	-5.7		
ClCC(Cl)(Cl)Cl [Compound 0407tet]	-1.15		
C1CCOCC1 [Compound 0244tet]		-3.12	
COP(=S)(OC)SCn1nnc2ccccc2c1=O [test1010]		-10	
Cc1cccc(N)c1 [i020, 3-methylaniline, reference compound]			Exp. ΔGsolv [3]: -69.60 kcal/mol
CC(C)Cl [Compound 0168chl]	-0.25		
CC1=CC(=O)CC(C)(C)C1 [test1034]	-5.2		
CCC(=O)Nc1ccc(Cl)c(Cl)c1 [test1048]		-7.8	
CC(=O)Nc1ccc(O)cc1 [test3001]		-14.83	
FC(Cl)(Cl)Cl [Compound 0422ftc]	0.82		
FC1(F)C(F)(F)C(F)(F)C1(F)F [test2023]		3.43	
CCCCCO [Compound 0052pen]		-4.47	
COP(=S)(OC)Oc1cc(Cl)c(Cl)cc1Cl [Compound 0444pho]	-5.06		
Cc1ccc(Br)cc1 [Compound 0420pbr]	-1.39		
CCOP(=S)(OCC)SCSCC [test1045]		-4.4	
O=C(O)C(F)(F)F [i118, trifluoroaceticacid, reference compound]			Exp. ΔGsolv [3]: -59.30 kcal/mol
CNC(C)=O [Compound 0235ZNmb]		-10	
